The target in one data set is T1, FYN(isoform b) (Homo sapiens, UniProt P06241).
T1 construct: purchased Carna Biosciences, Inc
Description: Off-chip Mobility Shift Assay, kinase inhibition. It is filed as biochemical. Conditions: recombinant FYN(isoform b).

A further data set has as its target T2, MNK1 (Homo sapiens, UniProt Q9BUB5).
T2 construct: purchased Carna Biosciences, Inc
Description: Off-chip Mobility Shift Assay, kinase inhibition. It is filed as biochemical. The following applies: at 10 nM; recombinant MNK1.

In a further data set the target is T3, KIT(V560G) (Homo sapiens, UniProt P10721, V560G).
T3 construct: purchased Carna Biosciences, Inc
T3 sequence (P10721 26-976 V560G): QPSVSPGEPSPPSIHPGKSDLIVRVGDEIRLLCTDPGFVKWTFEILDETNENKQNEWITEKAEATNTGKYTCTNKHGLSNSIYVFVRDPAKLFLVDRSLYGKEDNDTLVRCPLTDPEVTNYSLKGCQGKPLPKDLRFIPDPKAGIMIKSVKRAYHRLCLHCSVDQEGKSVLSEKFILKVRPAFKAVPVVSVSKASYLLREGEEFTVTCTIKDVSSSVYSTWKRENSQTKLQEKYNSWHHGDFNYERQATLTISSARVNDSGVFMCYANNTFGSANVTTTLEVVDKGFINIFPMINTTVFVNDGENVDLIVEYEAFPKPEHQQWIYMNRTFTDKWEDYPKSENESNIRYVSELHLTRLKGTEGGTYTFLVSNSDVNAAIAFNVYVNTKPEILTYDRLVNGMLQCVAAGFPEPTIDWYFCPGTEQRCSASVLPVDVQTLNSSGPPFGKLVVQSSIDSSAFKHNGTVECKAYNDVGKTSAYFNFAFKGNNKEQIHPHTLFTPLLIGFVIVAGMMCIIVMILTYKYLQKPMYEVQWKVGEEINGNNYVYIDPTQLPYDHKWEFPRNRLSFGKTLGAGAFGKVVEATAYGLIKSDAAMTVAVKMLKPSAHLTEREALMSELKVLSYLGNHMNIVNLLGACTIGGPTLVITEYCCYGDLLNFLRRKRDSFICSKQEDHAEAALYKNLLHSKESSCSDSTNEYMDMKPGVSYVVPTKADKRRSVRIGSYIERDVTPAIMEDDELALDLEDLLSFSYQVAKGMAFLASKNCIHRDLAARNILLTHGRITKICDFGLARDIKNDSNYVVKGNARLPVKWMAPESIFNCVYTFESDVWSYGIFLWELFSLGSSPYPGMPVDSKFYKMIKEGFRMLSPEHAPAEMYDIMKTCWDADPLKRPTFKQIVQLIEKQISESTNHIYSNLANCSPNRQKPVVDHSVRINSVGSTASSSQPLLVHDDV
Description: Off-chip Mobility Shift Assay, kinase inhibition. It is filed as biochemical. Conditions: recombinant KIT(V560G); for inhibition at 0.01 µM: at 10 nM.

A further data set deals with T4, p38α (Homo sapiens, UniProt Q16539).
T4 construct: purchased Carna Biosciences, Inc
T4 sequence (Q16539 whole entry): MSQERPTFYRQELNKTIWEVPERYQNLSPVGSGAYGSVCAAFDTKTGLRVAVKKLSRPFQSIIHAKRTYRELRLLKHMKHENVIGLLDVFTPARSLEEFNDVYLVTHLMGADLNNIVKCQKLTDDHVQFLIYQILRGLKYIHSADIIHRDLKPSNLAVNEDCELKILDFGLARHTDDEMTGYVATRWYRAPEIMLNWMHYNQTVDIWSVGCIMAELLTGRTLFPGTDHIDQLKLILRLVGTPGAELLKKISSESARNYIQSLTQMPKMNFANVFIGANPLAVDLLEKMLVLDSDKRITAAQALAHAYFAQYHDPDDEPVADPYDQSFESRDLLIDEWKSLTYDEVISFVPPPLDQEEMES
Description: Off-chip Mobility Shift Assay, kinase inhibition. It is filed as biochemical. Conditions: recombinant p38α; for inhibition at 0.01 µM: at 10 nM.

The next data set addresses T5, HER4 (Homo sapiens, UniProt Q15303).
T5 construct: purchased Carna Biosciences, Inc
As to the kind of experiment: Off-chip Mobility Shift Assay, kinase inhibition. It is filed as biochemical. The following applies: at 10 nM; recombinant HER4.

The target in another data set is T6, PDGFRα(V561D) (Homo sapiens, UniProt P16234, V561D).
T6 construct: purchased Carna Biosciences, Inc
As to the kind of experiment: Off-chip Mobility Shift Assay, kinase inhibition. In kind it is biochemical. The following applies: at 10 nM; recombinant PDGFRα(V561D).

Another data set addresses T7, RAF1 (Homo sapiens, UniProt P04049, Y340D/Y341D).
T7 construct: purchased Carna Biosciences, Inc
Description: Off-chip Mobility Shift Assay, kinase inhibition. In kind it is biochemical. Conditions: recombinant RAF1; for inhibition at 0.01 µM: at 10 nM.

The target of another data set is T8, FGFR3 (Homo sapiens, UniProt P22607).
T8 construct: purchased Carna Biosciences, Inc
As to the kind of experiment: Off-chip Mobility Shift Assay, kinase inhibition. In kind it is biochemical. Conditions: at 10 nM; recombinant FGFR3.

A further data set deals with T9, KIT (Homo sapiens, UniProt P10721).
T9 construct: purchased Carna Biosciences, Inc
T9 sequence (P10721 26-976): as the sequence (P10721 26-976 V560G) above, with G535V counted along it
As to the kind of experiment: Off-chip Mobility Shift Assay, kinase inhibition. In kind it is biochemical. The following applies: recombinant KIT; for inhibition at 0.01 µM: at 10 nM.

Another data set has as its target T10, EGFR (Homo sapiens, UniProt P00533).
T10 construct: purchased Carna Biosciences, Inc
Description: Off-chip Mobility Shift Assay, kinase inhibition. It is filed as biochemical. Conditions: recombinant EGFR; for inhibition at 0.01 µM: at 10 nM.

The target in the next data set is T11, BRAF (Homo sapiens, UniProt P15056).
T11 construct: purchased Carna Biosciences, Inc
As to the kind of experiment: Off-chip Mobility Shift Assay, kinase inhibition. The following applies: recombinant BRAF; for inhibition at 0.01 µM: at 10 nM. In kind it is biochemical.

In a further data set the target is T12, p38β (Homo sapiens, UniProt Q15759).
T12 construct: purchased Carna Biosciences, Inc
T12 sequence (Q15759 whole entry): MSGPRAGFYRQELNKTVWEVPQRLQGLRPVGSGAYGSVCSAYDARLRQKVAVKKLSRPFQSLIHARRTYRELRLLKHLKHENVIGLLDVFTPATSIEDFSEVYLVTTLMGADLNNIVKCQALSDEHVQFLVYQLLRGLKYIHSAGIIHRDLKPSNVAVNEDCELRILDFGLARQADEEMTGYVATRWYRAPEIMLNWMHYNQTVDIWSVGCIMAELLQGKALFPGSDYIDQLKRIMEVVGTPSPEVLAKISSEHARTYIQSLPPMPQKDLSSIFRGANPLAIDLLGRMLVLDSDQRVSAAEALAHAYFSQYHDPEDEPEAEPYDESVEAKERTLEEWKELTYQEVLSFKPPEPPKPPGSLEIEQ
Description: Off-chip Mobility Shift Assay, kinase inhibition. In kind it is biochemical. Conditions: recombinant p38β; for inhibition at 0.01 µM: at 10 nM.

The target in another data set is T13, DDR1 (Homo sapiens, UniProt Q08345).
T13 construct: purchased Carna Biosciences, Inc
As to the kind of experiment: Off-chip Mobility Shift Assay, kinase inhibition. In kind it is biochemical. The following applies: at 10 nM; recombinant DDR1.

The next data set deals with T14, HER2 (Homo sapiens, UniProt P04626).
T14 construct: purchased Carna Biosciences, Inc
T14 sequence (P04626 23-1255): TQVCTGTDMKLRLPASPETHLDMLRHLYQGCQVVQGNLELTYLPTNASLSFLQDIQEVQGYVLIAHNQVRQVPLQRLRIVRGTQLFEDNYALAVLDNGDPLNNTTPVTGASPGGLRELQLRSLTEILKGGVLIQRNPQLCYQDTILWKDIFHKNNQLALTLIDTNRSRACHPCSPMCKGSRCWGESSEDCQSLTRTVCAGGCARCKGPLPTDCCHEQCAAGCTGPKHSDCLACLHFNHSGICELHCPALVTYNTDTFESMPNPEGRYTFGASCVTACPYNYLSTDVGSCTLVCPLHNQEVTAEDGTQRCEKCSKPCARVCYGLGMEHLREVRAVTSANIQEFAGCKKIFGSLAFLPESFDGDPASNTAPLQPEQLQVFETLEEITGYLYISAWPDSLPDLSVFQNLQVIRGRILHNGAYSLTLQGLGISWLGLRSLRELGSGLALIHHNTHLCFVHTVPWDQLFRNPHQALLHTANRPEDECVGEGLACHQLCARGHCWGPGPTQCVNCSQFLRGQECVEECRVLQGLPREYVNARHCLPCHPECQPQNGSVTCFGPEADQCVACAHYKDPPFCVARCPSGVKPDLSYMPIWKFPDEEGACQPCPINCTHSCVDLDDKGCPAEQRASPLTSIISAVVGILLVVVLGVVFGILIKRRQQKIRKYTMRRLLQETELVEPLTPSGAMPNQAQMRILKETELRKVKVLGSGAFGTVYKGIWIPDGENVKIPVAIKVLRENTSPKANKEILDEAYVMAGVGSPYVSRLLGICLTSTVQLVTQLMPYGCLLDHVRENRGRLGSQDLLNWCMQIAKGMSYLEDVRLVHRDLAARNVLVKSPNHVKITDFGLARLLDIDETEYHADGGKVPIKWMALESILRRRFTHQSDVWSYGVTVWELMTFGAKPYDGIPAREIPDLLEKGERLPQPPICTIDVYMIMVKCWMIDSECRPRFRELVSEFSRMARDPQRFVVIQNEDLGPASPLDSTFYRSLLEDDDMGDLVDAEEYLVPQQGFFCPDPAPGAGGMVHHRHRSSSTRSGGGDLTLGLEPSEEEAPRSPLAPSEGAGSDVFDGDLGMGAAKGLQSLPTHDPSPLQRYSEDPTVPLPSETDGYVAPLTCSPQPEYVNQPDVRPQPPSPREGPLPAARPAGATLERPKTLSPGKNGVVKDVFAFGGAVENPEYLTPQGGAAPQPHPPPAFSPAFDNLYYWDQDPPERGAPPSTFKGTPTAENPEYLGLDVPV
As to the kind of experiment: Off-chip Mobility Shift Assay, kinase inhibition. Conditions: recombinant HER2; for inhibition at 0.01 µM: at 10 nM. It is filed as biochemical.

The target of another data set is T15, KIT(D816V) (Homo sapiens, UniProt P10721, D816V).
T15 construct: purchased Carna Biosciences, Inc
T15 sequence (P10721 26-976 D816V): as the sequence (P10721 26-976 V560G) above, with G535V, D791V counted along it
As to the kind of experiment: Off-chip Mobility Shift Assay, kinase inhibition. It is filed as biochemical. Conditions: at 10 nM; recombinant KIT(D816V).

A further data set concerns the target T16, EGFR(L858R) (Homo sapiens, UniProt P00533, L858R).
T16 construct: purchased Carna Biosciences, Inc
Description: Off-chip Mobility Shift Assay, kinase inhibition. Conditions: at 10 nM; recombinant EGFR(L858R). It is filed as biochemical.

The target in another data set is T17, skMLCK (Homo sapiens, UniProt Q9H1R3).
T17 construct: purchased Carna Biosciences, Inc
Description: Off-chip Mobility Shift Assay, kinase inhibition. It is filed as biochemical. Conditions: at 10 nM; recombinant skMLCK.

The next data set addresses T18, YES(T348I) (Homo sapiens, UniProt P07947, T348I).
T18 construct: purchased Carna Biosciences, Inc
As to the kind of experiment: Off-chip Mobility Shift Assay, kinase inhibition. It is filed as biochemical. Conditions: recombinant YES(T348I).

The target in a further data set is T19, ABL(T315I) (Homo sapiens, UniProt P00519, T315I).
T19 construct: purchased Carna Biosciences, Inc
As to the kind of experiment: Off-chip Mobility Shift Assay, kinase inhibition. In kind it is biochemical. Conditions: at 1 nM; recombinant ABL(T315I).

Data set [1] can be described thus: Pharmacokinetics in Sprague-Dawley rats, 2-in-1 dosing. In kind it is in vivo. The following applies: rat; for V: intravenous 1 mg/kg. The protocol:
Sprague-Dawley rats (approximate weight 275-300 g, N=3) were dosed intravenously at 5 mL/kg and orally at 10 mL/kg with the above dosing solutions. Blood samples were collected into tubes containing EDTA as the anticoagulant at 0, 0.25 (intravenous only), 0.5, 1, 2, 4, 8, 10, and 24 h post-dosing, and plasma samples were prepared by centrifugation. The plasma samples were mixed with 3× volumes of acetonitrile containing 100 nM reserpine as the internal standard, and centrifuged at 4000 RPM for 15 min. The supernatants were injected for LC/MS analysis which were carried out on a AB Sciex 4000 Q Trap LC/MS/MS system coupled with Shimadzu Prominence UFLCXR 20 series (including a CBM-20A controller, two LC-20ADXR solvent delivery units, SIL-20AC HT autosampler, CTO-20A column oven, and a SPD-20A UV detector). The samples were separated on a Phenomenex Columbus column (C18, 4 μm, 50×2 mm) eluted with two solvent systems: 2 mM ammonium acetate in water containing 0.1% formic acid (A) and methanol (B) at a linear gradient starting with 25% B. Electrospray ionization in positive mode was used to acquire LC/MS/MS data.

Data set [2] can be described thus: Lung tissue and plasma concentration ratios in mice. It is filed as in vivo, CD-1 mouse. Conditions: single oral dose 5 mg/kg, 2-in-1 with dasatinib, all time points tested. The protocol: CD-1 mouse (approximate weight 30 g, N=3) were dosed by oral gavage at 10 mL/kg. Blood samples were collected into tubes containing EDTA as the anticoagulant at 1, 2, 4, 10 h post-dosing for Compound X, and predose, 1, 2, 3, 8, 10 and 24 h post-dosing for Compound XI. The plasma samples were prepared by centrifugation. Lung samples were also collected at each of the above time points. The lung samples were homogenated in 4× distilled water (v/w). The plasma samples and the homogenated lung tissue samples were mixed with 3× volumes of acetonitrile containing 100 nM reserpine as the internal standard, and centrifuged at 4000 RPM for 15 min. The supernatants were injected for LC/MS analysis which were carried out on a AB Sciex 4000 Q Trap LC/MS/MS system coupled with Shimadzu Prominence UFLCXR 20 series (including a CBM-20A controller, two LC-20ADXR solvent delivery units, SIL-20AC HT autosampler, CTO-20A column oven, and a SPD-20A UV detector). The samples were separated on a Phenomenex Columbus column (C18, 4 μm, 50×2 mm) eluted with two solvent systems: 2 mM ammonium acetate in water containing 0.1% formic acid (A) and methanol (B) at a linear gradient starting at 25%. Electrospray ionization in positive mode was used to acquire LC/MS/MS data.

[3] abbreviates: Table 2, co-dosed with compound IV.
Setting [4] is: Table 3, co-dosed with compound X.

Structures are written as SMILES. A value given as a limit tells only on which side of the number the result lay.

Here are results for six compounds from patent publication US10479786B2, “Protein kinase inhibitors” (Princeton Drug Discovery Inc, priority 2016, dated 2019).

Usually inhibition stands for the percentage by which the read-out fell short of the control.

T7 sequence (P04049 306-648 Y340D/Y341D limits assumed): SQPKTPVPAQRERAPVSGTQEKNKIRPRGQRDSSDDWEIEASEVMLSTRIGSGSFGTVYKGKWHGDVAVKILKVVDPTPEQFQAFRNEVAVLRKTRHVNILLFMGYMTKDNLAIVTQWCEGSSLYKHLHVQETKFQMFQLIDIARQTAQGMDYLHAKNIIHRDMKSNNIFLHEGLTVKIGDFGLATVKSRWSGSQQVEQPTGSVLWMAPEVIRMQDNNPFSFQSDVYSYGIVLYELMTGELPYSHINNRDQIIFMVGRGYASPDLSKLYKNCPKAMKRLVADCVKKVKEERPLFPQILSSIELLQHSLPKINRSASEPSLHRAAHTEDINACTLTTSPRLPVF
T10 sequence (P00533 25-1210): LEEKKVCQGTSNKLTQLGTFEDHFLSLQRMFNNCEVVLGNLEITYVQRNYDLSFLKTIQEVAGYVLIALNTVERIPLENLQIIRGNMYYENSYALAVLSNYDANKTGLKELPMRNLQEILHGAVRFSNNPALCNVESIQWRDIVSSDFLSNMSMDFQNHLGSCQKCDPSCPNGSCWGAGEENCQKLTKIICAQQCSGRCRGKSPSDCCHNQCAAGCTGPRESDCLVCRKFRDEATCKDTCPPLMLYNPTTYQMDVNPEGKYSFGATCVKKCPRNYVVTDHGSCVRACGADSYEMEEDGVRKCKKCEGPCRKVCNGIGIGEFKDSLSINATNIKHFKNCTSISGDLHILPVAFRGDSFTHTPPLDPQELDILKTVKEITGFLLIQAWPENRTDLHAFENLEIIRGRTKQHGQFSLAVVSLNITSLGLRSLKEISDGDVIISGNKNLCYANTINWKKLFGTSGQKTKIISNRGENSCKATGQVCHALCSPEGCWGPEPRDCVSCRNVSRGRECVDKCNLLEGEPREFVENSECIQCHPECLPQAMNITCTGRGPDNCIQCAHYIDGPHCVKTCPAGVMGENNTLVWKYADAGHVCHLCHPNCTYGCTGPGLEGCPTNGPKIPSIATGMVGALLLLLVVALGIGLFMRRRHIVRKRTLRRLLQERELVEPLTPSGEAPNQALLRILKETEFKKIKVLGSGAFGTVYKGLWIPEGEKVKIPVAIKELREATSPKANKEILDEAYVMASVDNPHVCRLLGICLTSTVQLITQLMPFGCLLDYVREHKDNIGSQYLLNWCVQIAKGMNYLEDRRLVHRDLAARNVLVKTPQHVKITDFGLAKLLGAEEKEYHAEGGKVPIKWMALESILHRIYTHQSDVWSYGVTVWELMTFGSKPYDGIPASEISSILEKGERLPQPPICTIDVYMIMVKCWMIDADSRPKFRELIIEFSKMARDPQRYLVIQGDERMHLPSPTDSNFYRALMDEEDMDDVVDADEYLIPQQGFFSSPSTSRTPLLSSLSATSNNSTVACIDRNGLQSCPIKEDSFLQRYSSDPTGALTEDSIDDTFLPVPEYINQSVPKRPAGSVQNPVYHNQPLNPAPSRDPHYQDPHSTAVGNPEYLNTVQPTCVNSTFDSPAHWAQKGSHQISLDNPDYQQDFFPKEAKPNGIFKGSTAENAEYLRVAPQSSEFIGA
T1 sequence (P06241 1-534 isoform P06241-2): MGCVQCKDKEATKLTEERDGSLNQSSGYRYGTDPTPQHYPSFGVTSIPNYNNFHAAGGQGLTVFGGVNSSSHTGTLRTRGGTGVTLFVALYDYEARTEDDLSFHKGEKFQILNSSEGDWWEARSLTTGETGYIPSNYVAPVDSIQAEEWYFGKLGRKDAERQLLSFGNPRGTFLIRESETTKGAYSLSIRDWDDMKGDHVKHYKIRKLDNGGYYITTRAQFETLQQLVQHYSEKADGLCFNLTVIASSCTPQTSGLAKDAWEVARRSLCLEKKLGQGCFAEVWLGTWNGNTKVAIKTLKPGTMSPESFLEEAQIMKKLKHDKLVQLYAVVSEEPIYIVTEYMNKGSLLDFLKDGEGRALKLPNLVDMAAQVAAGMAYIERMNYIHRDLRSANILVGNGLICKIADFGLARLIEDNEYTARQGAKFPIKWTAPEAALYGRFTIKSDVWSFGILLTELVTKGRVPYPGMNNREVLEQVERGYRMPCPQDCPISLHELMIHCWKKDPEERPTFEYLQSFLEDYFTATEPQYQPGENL

Regarding `[2H]c1cc(C)c(NC(=O)c2cnc(Nc3cc(N4CCCCC4)nc(C)n3)s2)c(Cl)c1` [Compound I, N-(2-chloro-4-deuterio-6-methyl-phenyl)-2-[[2-methyl-6-(1-piperidyl)pyrimidin-4-yl]amino]thiazole-5-carboxamide], the inhibition at 0.01 µM is more than 50% at FYN(isoform b) (at 10 nM); less than 50% at MNK1; less than 50% at KIT(V560G); less than 50% on p38α; less than 50% on HER4; less than 50% at PDGFRα(V561D). For the same compound, the inhibition at 0.01 µM at RAF1, at FGFR3, on KIT, on EGFR, at BRAF and on p38β was less than 50% throughout. Besides, the inhibition at 0.01 µM on DDR1 was less than 50%; on HER2, less than 50%; on KIT(D816V), more than 50%; on EGFR(L858R) it was less than 50%; at skMLCK, less than 50%; on YES(T348I) (at 10 nM), less than 50%.
Take `[2H]c1cc(C)c(NC(=O)c2cnc(Nc3cc(N4CCC(O)CC4)nc(C)n3)s2)c(Cl)c1` [Compound II, N-(2-chloro-4-deuterio-6-methyl-phenyl)-2-[[6-(4-hydroxy-1-piperidyl)-2-methyl-pyrimidin-4-yl]amino]thiazole-5-carboxamide]: the inhibition at 0.001 µM at FYN(isoform b) (at 1 nM) is more than 50%; on KIT(V560G) (at 1 nM) it was less than 50%; at p38α (at 1 nM), less than 50%; at ABL(T315I), less than 50%; on RAF1 (at 1 nM), less than 50%; at KIT (at 1 nM), less than 50%. Further, the inhibition at 0.001 µM at EGFR (at 1 nM), on BRAF (at 1 nM), at p38β (at 1 nM), at HER2 (at 1 nM) and at YES(T348I) (at 1 nM) was less than 50% each time. The inhibition at 0.01 µM at KIT(V560G) is more than 50%; on p38α, less than 50%; at RAF1, less than 50%; at KIT, more than 50%; at EGFR, less than 50%; on BRAF, less than 50%. The inhibition at 0.01 µM at p38β and at HER2 was less than 50% throughout. In addition, the inhibition at 0.1 µM was more than 50% on KIT(V560G) (at 100 nM); less than 50% on p38α (at 100 nM); less than 50% on RAF1 (at 100 nM); more than 50% at KIT (at 100 nM); more than 50% on EGFR (at 100 nM); less than 50% on BRAF (at 100 nM). Further, the inhibition at 0.1 µM on p38β (at 100 nM) and at HER2 (at 100 nM) was less than 50% in each case.
For the compound `[2H]c1cc(C)c(NC(=O)c2cnc(Nc3cc(N4CC[C@H](O)C4)nc(C)n3)s2)c(Cl)c1` [Compound IV, N-(2-chloro-4-deutero-6-methylphenyl)-2-[[2-methyl-6-((S)-3-hydroxypyrrolidin-1-yl)pyrimidin-4-yl]amino]thiazole-5-carboxamide], in data set [1], the “intravenous plasma clearance compared to dasatinib and compound III” value is given as “much lower intravenous plasma clearance”; the “intravenous volume of distribution compared to dasatinib and compound III” value is “significantly lower intravenous volume of distribution values”. The V in data set [1] (setting [3]) stood at 1 ± 0 L/kg.
For `[2H]c1cc(C)c(NC(=O)c2cnc(Nc3cc(N4CC[C@@H](O)C4)nc(C)n3)s2)c(Cl)c1` [Compound V, N-(2-chloro-4-deutero-6-methylphenyl)-2-[[2-methyl-6-((R)-3-hydroxypyrrolidin-1-yl)pyrimidin-4-yl]amino]thiazole-5-carboxamide], in that order: “much lower intravenous plasma clearance”, “significantly lower intravenous volume of distribution values” and 1 ± 0 L/kg.
On to `Cc1nc(Nc2ncc(C(=O)Nc3c(C)cccc3Cl)s2)cc(N2CC[C@H](O)C2)n1` [Compound X, N-(2-chloro-6-methylphenyl)-2-[[2-methyl-6-((S)-3-hydroxypyrrolidin-1-yl)pyrimidin-4-yl]amino]thiazole-5-carboxamide], for which, in [1] (PO 5 mg/kg versus intravenous 1 mg/kg, AUCinf dose normalized, Table 3), the “F, percent oral bioavailability” value came out at 18.9±2%. In addition, in data set [1], the “intravenous plasma clearance compared to dasatinib and compound III” value is reported as “much lower intravenous plasma clearance”; the “intravenous volume of distribution compared to dasatinib and compound III” value is reported as “significantly lower intravenous volume of distribution values”. Besides, the V in data set [1] (setting [4]) worked out at 1 ± 0 L/kg. Besides, in data set [2], the “ratio of lung tissue concentration to plasma concentration, compared to dasatinib” value is recorded as “significantly lower ratios”.
In the case of `Cc1nc(Nc2ncc(C(=O)Nc3c(C)cccc3Cl)s2)cc(N2CC[C@@H](O)C2)n1` [Compound XI, N-(2-chloro-6-methylphenyl)-2-[[2-methyl-6-((R)-3-hydroxypyrrolidin-1-yl)pyrimidin-4-yl]amino]thiazole-5-carboxamide], in data set [1], the “intravenous plasma clearance compared to dasatinib and compound III” value is listed as “much lower intravenous plasma clearance”; the “intravenous volume of distribution compared to dasatinib and compound III” value is recorded as “significantly lower intravenous volume of distribution values”. The V in data set [1] (setting [4]) was 1 ± 0 L/kg. Also, in [2], the “ratio of lung tissue concentration to plasma concentration, compared to dasatinib” value was “significantly lower ratios”.
